Data taken from patent EP0998923A1, “Use of 5-HT7 receptor agonists for the treatment or prophylaxis of ischemias” (BASF AKTIENGESELLSCHAFT, priority 1998, dated 2000).

Key:
male Long Evans rats = test: Permanent distal middle cerebral artery (MCA) occlusion, rat model of experimental stroke; format: in vivo
Method: The experiments were carried out in male Long Evans rats. Under halothane anesthesia supplemented with nitrous oxide, the right middle cerebral artery (MCA) was dissected and permanently ligated at a distal position as described in the literature. The outcome of the experiments was quantified by determining the resulting infarct volume 22 hours after MCA occlusion.
In the first series of experiments, animals were treated with 2 mg/kg R(+)-8-OH-DPAT i.v. followed by a maintenance infusion of 1 mg/kg/h R(+)-8-OH-DPAT i.v. Drug administration was started 90 min after MCA occlusion. In the second series of experiments, rats were pretreated with 2.14 mg/kg/h WAY 100,635 i.p., started 2 hours before MCA occlusion; administration of R(+)-8-OH-DPAT was subsequently performed as in the first study. Accordingly, in the second series a total dose of 2.14 mg/kg/h of WAY 100,635 had been administered for 3.5 h (total dosage = 7.49 mg/kg) before treatment with the agonist R(+)-8-OH-DPAT commenced. The blockade of 5-HT1A receptors under these conditions was confirmed by the complete lack of stereotyped behavior observed in animals treated with R(+)-8-OH-DPAT […]. Under the conditions of the second series, any pharmacological effect of R(+)-8-OH-DPAT treatment are mediated by the 5-HT7 receptor.
The experiments were carried out under the same conditions as described in Example 1,
A preferred 5-HT7 receptor agonist is 1-[3-[4-[3-(trifluoromethyl)-phenyl]-piperazine-1-yl]-propyl]-3-hydroxy-1H-pyridine-2-on (= Compound A), a compound which can be prepared as discribed in example 3. The 5-HT7 agonist Compound A was administered as an intravenous bolus followed by a maintenance infusion.

5-HT7 receptor = 5-HT7 receptor (Homo sapiens, UniProt P34969); test: Affinity to the 5-HT7 receptor; format: binding
Excerpt: (§1) The affinity of a compound to a human 5-HT receptor can be measured and calculated easily by methods known to a skilled person.

5-HT1A receptor = molecular target: T1, 5-HT1A receptor (Homo sapiens, UniProt P08908); test: Affinity to the 5-HT1A receptor; format: binding
T1 sequence (P08908 1-422): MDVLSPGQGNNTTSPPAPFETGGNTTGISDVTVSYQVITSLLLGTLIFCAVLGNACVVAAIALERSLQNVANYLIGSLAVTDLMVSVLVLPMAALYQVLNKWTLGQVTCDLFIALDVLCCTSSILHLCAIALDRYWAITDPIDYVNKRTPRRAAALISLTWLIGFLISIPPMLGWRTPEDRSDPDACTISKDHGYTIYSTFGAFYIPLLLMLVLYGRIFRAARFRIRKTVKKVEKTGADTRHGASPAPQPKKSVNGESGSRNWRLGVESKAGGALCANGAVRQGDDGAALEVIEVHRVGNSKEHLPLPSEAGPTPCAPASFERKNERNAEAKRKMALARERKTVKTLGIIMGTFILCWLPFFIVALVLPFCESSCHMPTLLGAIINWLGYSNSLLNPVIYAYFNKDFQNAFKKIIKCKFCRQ
Excerpt: as §1

Chain of 5-HT7 receptor (P34969 whole entry): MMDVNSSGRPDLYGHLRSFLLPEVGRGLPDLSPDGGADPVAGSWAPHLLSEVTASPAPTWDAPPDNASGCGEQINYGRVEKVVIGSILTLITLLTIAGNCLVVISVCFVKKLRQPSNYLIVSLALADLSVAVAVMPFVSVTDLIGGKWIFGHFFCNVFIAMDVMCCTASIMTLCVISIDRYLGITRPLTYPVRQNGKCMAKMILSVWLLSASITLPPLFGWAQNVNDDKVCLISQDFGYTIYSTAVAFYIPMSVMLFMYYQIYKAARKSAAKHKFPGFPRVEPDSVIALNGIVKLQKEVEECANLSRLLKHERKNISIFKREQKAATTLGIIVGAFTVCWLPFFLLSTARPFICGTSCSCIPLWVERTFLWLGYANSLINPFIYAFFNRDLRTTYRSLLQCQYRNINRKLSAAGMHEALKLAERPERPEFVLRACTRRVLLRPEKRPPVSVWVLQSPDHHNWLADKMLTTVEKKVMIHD

O=c1c(O)cccn1CCCN1CCN(c2cccc(C(F)(F)F)c2)CC1 [Compound A, 1-[3-[4-[3-(trifluoromethyl)-phenyl]-piperazine-1-yl]-propyl]-3-hydroxy-1H-pyridine-2-on]
Stereotyped behavior (male Long Evans rats; Example 2: dose 4+2 mg/kg + mg/kg/h i.v.): No
Infarct volume, % of control, mean ± SD, (n) Treatment (male Long Evans rats; Example 2: dose 4+2 mg/kg + mg/kg/h i.v. (bolus + maintenance infusion), same conditions as Example 1): 78±23(10) % of control
Ki (5-HT7 receptor): 7 nM
selectivity for the 5-HT7 receptor (5-HT7 receptor; 5-HT7 over 5-HT1A (ratio of Ki values)): approximately 19 fold
Ki (5-HT1A receptor): 130 nM

CCCN(CCC)C1CCc2cccc(O)c2C1 (stereo not drawn) [R(+)-8-OH-DPAT, 8-hydroxy-di-n-propylamino tetralin]
Infarct volume, % of control, mean ± SD, (n) Treatment (male Long Evans rats; Example 1: 2 mg/kg R(+)-8-OH-DPAT i.v. + 1 mg/kg/h i.v. infusion, started 90 min after MCA occlusion, combination: pretreated with 2.14 mg/kg/h WAY 100,635 i.p. from 2 hours before occlusion, infarct volume 22 hours after occlusion): 72±32(12) % of control
Stereotyped behavior (male Long Evans rats; Example 1: same dosing as for infarct volume, with or without WAY 100,635 pretreatment): Yes
reduction of infarct volume (male Long Evans rats; Example 1: versus placebo, 22 hours after MCA occlusion): 28%
